From patent publication US8258134B2, “Pyridazinone glucokinase activators” (Hoffmann-La Roche Inc., priority 2008, dated 2012) come the findings set out here.

The first assay concerns the target T1, Recombinant human liver GK1 (GST-GK) (Homo sapiens, UniProt P35557).
T1 construct: made in house; host or cells: E. coli
T1 sequence (P35557 1-466 isoform P35557-2): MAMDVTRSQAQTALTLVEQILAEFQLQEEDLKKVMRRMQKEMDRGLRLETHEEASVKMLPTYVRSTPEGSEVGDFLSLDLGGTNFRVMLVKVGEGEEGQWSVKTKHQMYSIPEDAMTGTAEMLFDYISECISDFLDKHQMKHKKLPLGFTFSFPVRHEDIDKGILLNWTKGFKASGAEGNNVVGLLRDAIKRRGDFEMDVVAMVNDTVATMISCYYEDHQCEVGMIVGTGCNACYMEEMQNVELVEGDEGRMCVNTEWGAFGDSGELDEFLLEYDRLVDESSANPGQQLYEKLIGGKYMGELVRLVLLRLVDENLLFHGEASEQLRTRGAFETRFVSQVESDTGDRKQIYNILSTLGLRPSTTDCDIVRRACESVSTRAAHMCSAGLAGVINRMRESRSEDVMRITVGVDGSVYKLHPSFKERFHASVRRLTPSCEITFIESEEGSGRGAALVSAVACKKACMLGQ
The assay can be described thus: Glucokinase in vitro assay (G6PDH-coupled NADH generation, OD340). Format: biochemical. To be noted: 30 uM test compound, 5 mM D-glucose. In short, it runs like this: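 GST-tagged recombinant GK1 expressed in E. coli, run at 30° C, pH 7.1 Hepes with 5 mM D-glucose, 1 mM ATP and 1.8 mM NAD, G6PDH-coupled. Compounds were in 10% DMSO final, with a 10 min pre-incubation before enzyme addition. OD340/min rate measured; SC1.5 is the activator concentration giving a 50% increase in activity.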
For the compound `CC(C)(O)Cn1ccc(NC(=O)[C@@H](CC2CCCC2)n2ncc(Oc3ccccc3C3CCCC3)cc2=O)n1` [Example 22B, (R)-3-Cyclopentyl-2-[4-(2-cyclopentyl-phenoxy)-6-oxo-6H-pyridazin-1-yl]-N-[1-(2-hydroxy-2-methyl-propyl)-1H-pyrazol-3-yl]-propionamide], the “fold activation @ 30 uM” value came to 1.22 fold.

Still in this assay, the particulars now being: 5 mM D-glucose, 30° C., pH 7.1, 10% DMSO.
As for `O=C(O)c1ccc(NC(=O)[C@H](CC2CCCC2)n2ncc(Oc3cccc4c3CCCC4)cc2=O)nc1` [Example 72A, 6-{(S)-3-Cyclopentyl-2-[6-oxo-4-(5,6,7,8-tetrahydro-naphthalen-1-yloxy)-6H-pyridazin-1-yl]-propionylamino}-nicotinic acid], the “SC1.5 average (concentration of activator that produced a 50% increase in the activity of GK)” value amounted to 0.044 µM.

Regarding `CC(C)(O)Cn1ccc(NC(=O)[C@@H](CC2CCCC2)n2ncc(Oc3ccccc3C3CCCC3)cc2=O)n1` [Example 22B, (R)-3-Cyclopentyl-2-[4-(2-cyclopentyl-phenoxy)-6-oxo-6H-pyridazin-1-yl]-N-[1-(2-hydroxy-2-methyl-propyl)-1H-pyrazol-3-yl]-propionamide], the “SC1.5 average (concentration of activator that produced a 50% increase in the activity of GK)” value was greater than 30 µM.

For `CC(C)(O)Cn1ccc(NC(=O)C(CC2CCCCC2)n2ncc(Oc3ccc(OC(F)(F)F)cc3Cl)c(Cl)c2=O)n1` (stereo not drawn) [Example 130, 2-[5-Chloro-4-(2-chloro-4-trifluoromethoxy-phenoxy)-6-oxo-6H-pyridazin-1-yl]-3-cyclohexyl-N-[1-(2-hydroxy-2-methyl-propyl)-1H-pyrazol-3-yl]-propionamide], the “SC1.5 average (concentration of activator that produced a 50% increase in the activity of GK)” value turned out to be 10.224 µM.

Consider `O=C(O)c1ccc(NC(=O)C(CC2CCCC2)n2ncc(Oc3c(F)cccc3F)cc2=O)nc1` (stereo not drawn) [Example 73, 6-{3-Cyclopentyl-2-[4-(2,6-difluoro-phenoxy)-6-oxo-6H-pyridazin-1-yl]-propionylamino}-nicotinic acid], for which the “SC1.5 average (concentration of activator that produced a 50% increase in the activity of GK)” value worked out at 0.026 µM.

Turning to `CC(C)(O)Cn1ccc(NC(=O)C(CC2CCOCC2)n2ncc(Oc3c(F)cccc3F)cc2=O)n1` (stereo not drawn) [Example 43, 2-[4-(2,6-Difluoro-phenoxy)-6-oxo-6H-pyridazin-1-yl]-N-[1-(2-hydroxy-2-methyl-propyl)-1H-pyrazol-3-yl]-3-(tetrahydro-pyran-4-yl)-propionamide], the “SC1.5 average (concentration of activator that produced a 50% increase in the activity of GK)” value stood at 0.232 µM.

For the compound `O=C(Nc1cnccn1)C(CC1CCCC1)n1ncc(Oc2ccccc2C(F)(F)F)cc1=O` (stereo not drawn) [Example 76, 3-Cyclopentyl-2-[6-oxo-4-(2-trifluoromethyl-phenoxy)-6H-pyridazin-1-yl]-N-pyrazin-2-yl-propionamide], the “SC1.5 average (concentration of activator that produced a 50% increase in the activity of GK)” value was 0.376 µM.

Consider `O=C(Nc1ccn(CCO)n1)C(Cc1c(F)cccc1F)n1ncc(Oc2c(F)cccc2F)cc1=O` (stereo not drawn) [Example 57, 2-[4-(2,6-Difluoro-phenoxy)-6-oxo-6H-pyridazin-1-yl]-3-(2,6-difluoro-phenyl)-N-[1-(2-hydroxy-ethyl)-1H-pyrazol-3-yl]-propionamide], for which the “SC1.5 average (concentration of activator that produced a 50% increase in the activity of GK)” value is 0.986 µM.

For the compound `COc1ccc(Oc2cnn(C(CC3CCCCC3)C(=O)Nc3ccn(CC(C)(C)O)n3)c(=O)c2)c(F)c1` (stereo not drawn) [Example 116, 3-Cyclohexyl-2-[4-(2-fluoro-4-methoxy-phenoxy)-6-oxo-6H-pyridazin-1-yl]-N-[1-(2-hydroxy-2-methyl-propyl)-1H-pyrazol-3-yl]-propionamide], the “SC1.5 average (concentration of activator that produced a 50% increase in the activity of GK)” value is 0.543 µM.

As to `Cc1ccccc1Oc1cnn([C@@H](CC2CCCC2)C(=O)Nc2ccn(CC(C)(C)O)n2)c(=O)c1` [Example 24A, (S)-3-Cyclopentyl-N-[1-(2-hydroxy-2-methyl-propyl)-1H-pyrazol-3-yl]-2-(6-oxo-4-o-tolyloxy-6H-pyridazin-1-yl)-propionamide], the “SC1.5 average (concentration of activator that produced a 50% increase in the activity of GK)” value turned out to be 0.1 µM.

With `O=C(O)c1ccc(NC(=O)C(CC2CCCC2)n2ncc(Oc3cccc4c3CCCC4)cc2=O)nc1` (stereo not drawn) [Example 72, 6-{3-Cyclopentyl-2-[6-oxo-4-(5,6,7,8-tetrahydro-naphthalen-1-yloxy)-6H-pyridazin-1-yl]-propionylamino}-nicotinic acid], the “SC1.5 average (concentration of activator that produced a 50% increase in the activity of GK)” value came out at 0.098 µM.

For `CC(C)(O)Cn1ccc(NC(=O)[C@@H](CC2CCCC2)n2ncc(Oc3cccc4cnccc34)cc2=O)n1` [Example 37B, (R)-3-Cyclopentyl-N-[1-(2-hydroxy-2-methyl-propyl)-1H-pyrazol-3-yl]-2-[4-(isoquinolin-5-yloxy)-6-oxo-6H-pyridazin-1-yl]-propionamide], the “SC1.5 average (concentration of activator that produced a 50% increase in the activity of GK)” value amounted to 18.488 µM.

For `CC(C)(O)Cn1ccc(NC(=O)C(CC2CCCC2)n2ncc(Oc3ccccc3-c3ccccc3)cc2=O)n1` (stereo not drawn) [Example 23, 2-[4-(Biphenyl-2-yloxy)-6-oxo-6H-pyridazin-1-yl]-3-cyclopentyl-N-[1-(2-hydroxy-2-methyl-propyl)-1H-pyrazol-3-yl]-propionamide], the “SC1.5 average (concentration of activator that produced a 50% increase in the activity of GK)” value turned out to be 0.868 µM.

As to `CC(C)(O)Cn1ccc(NC(=O)C(CC2CCCC2)n2ncc(Oc3cccc4ncccc34)cc2=O)n1` (stereo not drawn) [Example 38, 3-Cyclopentyl-N-[1-(2-hydroxy-2-methyl-propyl)-1H-pyrazol-3-yl]-2-[6-oxo-4-(quinolin-5-yloxy)-6H-pyridazin-1-yl]-propionamide], the “SC1.5 average (concentration of activator that produced a 50% increase in the activity of GK)” value is 0.776 µM.

Turning to `CC(C)(O)Cn1ccc(NC(=O)[C@H](CC2CCCC2)n2ncc(Oc3ccccc3N3CCCC3)cc2=O)n1` [Example 26A, (S)-3-Cyclopentyl-N-[1-(2-hydroxy-2-methyl-propyl)-1H-pyrazol-3-yl]-2-[6-oxo-4-(2-pyrrolidin-1-yl-phenoxy)-6H-pyridazin-1-yl]-propionamide], the “SC1.5 average (concentration of activator that produced a 50% increase in the activity of GK)” value was 0.102 µM.

Turning to `CC(C)(O)Cn1ccc(NC(=O)C(CC2CCCC2)n2ncc(OCC3CCCC3)cc2=O)n1` (stereo not drawn) [Example 9, 3-Cyclopentyl-2-(4-cyclopentylmethoxy-6-oxo-6H-pyridazin-1-yl)-N-[1-(2-hydroxy-2-methyl-propyl)-1H-pyrazol-3-yl]-propionamide], the “SC1.5 average (concentration of activator that produced a 50% increase in the activity of GK)” value was determined as 1.548 µM.

Take `CC(C)(O)Cn1ccc(NC(=O)[C@H](CC2CCCC2)n2ncc(Oc3ccccc3C#N)cc2=O)n1` [Example 29A, (S)-2-[4-(2-Cyano-phenoxy)-6-oxo-6H-pyridazin-1-yl]-3-cyclopentyl-N-[1-(2-hydroxy-2-methyl-propyl)-1H-pyrazol-3-yl]-propionamide]: the “SC1.5 average (concentration of activator that produced a 50% increase in the activity of GK)” value was found to be 0.159 µM.

`COC(=O)c1cc(NC(=O)C(CC2CCCC2)n2ncc(Oc3ccccc3C(F)(F)F)cc2=O)nn1C` (stereo not drawn) [Example 16, 5-{3-Cyclopentyl-2-[6-oxo-4-(2-trifluoromethyl-phenoxy)-6H-pyridazin-1-yl]-propionylamino}-2-methyl-2H-pyrazole-3-carboxylic acid methyl ester]: the “SC1.5 average (concentration of activator that produced a 50% increase in the activity of GK)” value stood at 4.548 µM.

Consider `O=C(O)c1ccc(NC(=O)[C@@H](CC2CCCC2)n2ncc(Oc3ccccc3F)cc2=O)nc1` [Example 75B, 6-{(R)-3-Cyclopentyl-2-[4-(2-fluoro-phenoxy)-6-oxo-6H-pyridazin-1-yl]-propionylamino}-nicotinic acid], for which the “SC1.5 average (concentration of activator that produced a 50% increase in the activity of GK)” value came out at 0.796 µM.

Take `CC(C)(O)Cn1ccc(NC(=O)[C@H](CC2CCCC2)n2ncc(Oc3cccc4cnccc34)cc2=O)n1` [Example 37A, (S)-3-Cyclopentyl-N-[1-(2-hydroxy-2-methyl-propyl)-1H-pyrazol-3-yl]-2-[4-(isoquinolin-5-yloxy)-6-oxo-6H-pyridazin-1-yl]-propionamide]: the “SC1.5 average (concentration of activator that produced a 50% increase in the activity of GK)” value worked out at 0.238 µM.

As to `COC(=O)c1ccc(NC(=O)C(CC2CCCC2)n2ncc(Oc3ccccc3F)cc2=O)nc1` (stereo not drawn) [Example 70, 6-{3-Cyclopentyl-2-[4-(2-fluoro-phenoxy)-6-oxo-6H-pyridazin-1-yl]-propionylamino}-nicotinic acid methyl ester], the “SC1.5 average (concentration of activator that produced a 50% increase in the activity of GK)” value came to 0.036 µM.

For the compound `CC(C)(O)Cn1ccc(NC(=O)[C@@H](CC2CCCC2)n2ncc(Oc3cccc(F)c3F)cc2=O)n1` [Example 31B, (R)-3-Cyclopentyl-2-[4-(2,3-difluoro-phenoxy)-6-oxo-6H-pyridazin-1-yl]-N-[1-(2-hydroxy-2-methyl-propyl)-1H-pyrazol-3-yl]-propionamide], the “SC1.5 average (concentration of activator that produced a 50% increase in the activity of GK)” value came out at 15.901 µM.

Turning to `COc1cnn(C(CC2CCCC2)C(=O)Nc2nccs2)c(=O)c1` (stereo not drawn) [Example 80, 3-Cyclopentyl-2-(4-methoxy-6-oxo-6H-pyridazin-1-yl)-N-thiazol-2-yl-propionamide], the “SC1.5 average (concentration of activator that produced a 50% increase in the activity of GK)” value stood at 3.208 µM.

As for `CC(C)(O)Cn1ccc(NC(=O)C(CC2CCCC2)n2ncc(Oc3cccc(F)c3)cc2=O)n1` (stereo not drawn) [Example 18, 3-Cyclopentyl-2-[4-(3-fluoro-phenoxy)-6-oxo-6H-pyridazin-1-yl]-N-[1-(2-hydroxy-2-methyl-propyl)-1H-pyrazol-3-yl]-propionamide], the “SC1.5 average (concentration of activator that produced a 50% increase in the activity of GK)” value is 0.634 µM.
